Tests used:
[1] = system: recombinant Heliothis virescens ryanodine receptor (expressed in Sf9 cells); assay: Calcium release assay in Sf9 cells expressing recombinant Heliothis virescens ryanodine receptor; type: cell-based; conditions: caffeine 10 mM; for cytosolic [Ca2+], Sf9 transiently expressing H. virescens ryanodine receptor (FIG. 4): 72 hr post-transfection, Cpd 5 3 μM
Source text: (§1) Several drops of a suspension of recombinant Spodoptera frugiperda cell line, Sf9, transiently expressing insect ryanodine receptors were placed on a poly-L-lysine-coated coverslip and allowed to attach. Cells were then rinsed in physiological saline having the following composition (mM): NaCl 130; KCl 5.4; MgCl2 1.2; CaCl2 1.0; NaHCO3 4.2; NaH2P04 7.3; Glucose 10; Sucrose 63; MES 20; pH 6.3. Cells were then bathed in physiological saline containing the calcium sensitive fluoroprobe, Fura-2 AM (2 μM), and Pluronic F127 (0.002%) for 30 min. Cells were rinsed in standard physiololgical saline for at least 15 min prior to testing. Testing was conducted in standard physiological saline, as the cell lines are devoid of functional voltage-gated calcium channels.
(§2) Imaging studies were conducted using a Nikon Diaphot microscope with a 40× oil immersion objective (NA 1.3) Image acquisition and processing was performed using the MetaFluor™ imaging system from Universal Imaging Corporation (West Chester, Pa.) Calcium calibration was carried out using the Grynkiewicz equation with a dissociation constant (Kd) of 145 nM for Fura-2 (Grynkiewicz et al., 1985). Cell-attached coverslips were placed in a sealed chamber with physiological saline continuously perfused across the cells using a peristaltic pump. Test compounds solubilized in physiological saline were applied by switching the perfusate source.
(§3) For studies involving the stable recombinant Spodoptera frugiperda cell line, Sf9, (other cell lines could also be used such as Sf21, S2, etc) expressing an insect ryanodine receptor from Drosophila melanogaster, or Heliothis virescens (alternatively receptors from other species such as Myzus persicae, Peregrinus maidis, Aphis gossypii, etc) were grown in T75 (or other appropriate sized) flasks in supplemented Grace's insect medium. Cells were maintained in an incubator at 22° C. until testing. Cells were suspension-loaded with the calcium sensitive fluoroprobe, Fura-2 AM (1-2 μM) and Pluronic F127 (0.002%) in culture medium for 30 minutes under agitation. Cells were then centrifuged and the pellet resuspended in physiological saline having the following composition (mM): NaCl 130; KCl 5.4; MgCl2 1.2; CaCl2 1.0; NaHCO3 4.2; NaH2P04 7.3; Glucose 10; Sucrose 63; MES 20; pH 6.3 at approximately 150,000-200,000 cells per well (96-well plate). After a 30 minute equilibration period the cell plate was tested using a Molecular Devices' FlexStation™ system with dual wavelength excitation (340 and 380 nm) and fluorescence emission measured at 510 nm. Test and control samples were added using integrated fluidics and the intracellular calcium monitored over a 2 minute period.

[2] = system: native cockroach ryanodine receptors (in embryonic neuronal cells); assay: Calcium release assay, calcium imaging in primary embryonic cockroach neuronal cells; type: cell-based, Periplaneta americana
Source text: Embryonic neuronal cultures of the American cockroach Periplaneta americana were established, with minor modifications, following the method of Beadle and Lees (1988) (in Cell Culture Approaches to Invertebrate Neuroscience, Academic Press, New York, pp 123-127). Briefly, 26-27-day old oothecae were collected, surface-sterilized and cut open along a line one-third of the distance below the dorsal midline. The heads were removed and placed in Schneider's Drosophila medium (Invitrogen Life Technologies™, Carlsbad, Calif.). Using fine forceps 40 brains were individually removed and placed in a small glass vial containing 700 μl of ‘5+4’ medium (‘5+4’ medium contained 5 parts Schneider's Drosophila medium plus 4 parts roach Basal Medium Eagle, with Earle's salts (BME, Sigma™, St. Louis, Mo.). Roach BME (with Earle's salts) contained 5 parts Hepes (1 M), 1 part penicillin/streptomycin and 44 parts BME (with Earle's salts). ‘5+4’ medium was made fresh and sterile filtered (0.2 μm filter) just prior to use). The brains were dissociated by sequential trituration as follows: 1) brains were passed through a standard Pasteur pipette 10 times; 2) the resulting tissue suspension was passed an additional 5 times through a Pasteur pipet with tip flamed to about half of its original diameter; 3) a final 5 passes were performed using a Pasteur pipet with tip flamed to slightly less than half of its original diameter. A repeat pipettor was used to dispense a 5 μl volume of the resulting suspension into the center of each well of a 96-well, glass-bottom plate previously coated with poly-L-lysine (0.2 mg/ml solution). Cells attached to the bottom of the wells during a 50 min incubation at 27-29° C. 150 ul of a 1:1 mixture of Leibovitz's L-15 medium and Yunker's modified Grace's medium was added, and plates were maintained in a humid incubator at 27-29° C. until use. After cells were allowed to attach wells were filled with a 1:1 mixture of Leibovitz's L-15 medium and Yunker's modified Grace's medium (Leibovitz's L-15 and Grace's medium were obtained from Invitrogen Life Technologies™, Carlsbad, Calif. and Yunker's modified Grace's medium was made with Grace's medium modified by addition of 5 mg L-methionine, 10 mg L-alanine, 182 mg MgCl26H20, 1 g Albumin Fraction V, 7 ml Fetal bovine serum, 10 ml Chick embryo extract, 2 ml Penicillin/Streptomycin, and 2 mg 20-hydroxyecdysone (prepared in ethanol prior to addition) to a final volume of 100 ml and sterile filtered (0.2 μm filter)). Cells were maintained in a high humidity incubator at 29° C. until testing.
Cells were rinsed in standard physiological saline having the following composition (mM): NaCl 190; CaCl2 9; KCl 3.1; probenicid 1; Tris buffer 10; pH 7.2. Cells were then bathed in standard physiological saline containing the calcium sensitive fluoroprobe Fluo4 AM (2 μM) and Pluronic F127 (0.002%) for 45 min. Cells were then rinsed in standard physiological saline for at least 15 min prior to testing. Within the hour prior to testing, standard physiological saline was replaced with standard physiological saline containing the organic cation channel blocker pimozide (10 μM), to inhibit influx of external calcium through voltage-gated calcium channels. The 96-well plate was placed on a PriorTm motorized stage mounted onto a Nikon Diaphot microscope and imaged using a 20× Fluor objective (NA 0.75). Individual wells from the 96-well plate were sequentially excited with light at 495 nm, and the emitted fluorescence at 530 nm was detected using a Hamamatsu ORCA ER digital camera with 2 pixel binning (image size 672×512 pixels).
Acquisition control, image processing and image analysis were conducted using Universal Imaging Corporation's MetaMorph™ imaging software (Universal Imaging, West Chester, Pa.). A series of 3 “control” images were acquired for each well. Experimental compounds were added followed by acquisition of 4 “experimental” images for each well. […]

[3] = biological target: T1, recombinant Drosophila melanogaster ryanodine receptor (expressed in Sf9 cells) (Drosophila melanogaster, UniProt Q24498); type: cell-based
T1 construct: His tag + attB1 + Lox footprint (N-terminal vector extension; present only if the Cre-Lox vector was the one used) (N); expressed in transfected cells
Source text: as §1
Cell-attached coverslips were placed in a sealed chamber with physiological saline continuously perfused across the cells using a peristaltic pump. Test compounds solubilized in physiological saline were applied by switching the perfusate source.
as §3

[4] = system: control Sf9 cells without DNA / wild type Sf9; assay: Calcium response in control or wild-type Sf9 cells lacking recombinant receptor; type: cell-based, Spodoptera frugiperda; conditions: for calcium responses in control cells without DNA (FIG. 4): Compound 5 3 μM
Source text: as §1, §2, §3

[5] = biological target: cockroach ryanodine receptor (roach femoral muscle membranes) (Periplaneta americana, UniProt Z9HFG3YSF4); assay: Radioligand displacement ([3H]-GN analog Cpd 1) from roach femoral muscle membranes; conditions: read-out: Displacement IC50 (nM) P. americana; displacement of [3H]-Cpd 1, roach muscle membranes, 60 min at 32° C.
Description: Mid and hind legs from 6-9 week old cockroaches were excised and immediately placed in liquid nitrogen. Excised legs could be stored at −80° C. for several months, if necessary, prior to further fractionation. Typically, membrane preparations started with approximately 55 g (wet weight) of excised legs. All subsequent steps were carried out at 4° C.
The legs were homogenized on ice using a Polytron (Brinkmann Instruments, Westbury, N.Y.) for 2 min at Setting #3. In order to remove all fragments of cuticle, the homogenate was first passed through two layers of cheesecloth and then through one layer of glass wool overlaid on two layers of cheesecloth. On occasion, the cheesecloth clogged with particulates prior to passing all material through. In such cases, fresh cheesecloth (and glass wool) was used for the remainder of the suspension. […] The supernatant was collected and centrifuged for 30 min at 30,000×gmax. The resulting pellet was resuspended in buffer A (1.5 M KCl, 0.3 M sucrose, 0.5 mM CaCl2, 20 mM Tris-HCl, pH 8.0). The membrane suspension was homogenized by hand (about 25 strokes) using a glass-teflon homogenizer. […] Subsequently, the membrane suspension was adjusted to 4 μg protein/μg by addition of buffer A and then stored in 1 ml aliquots at −80° C.
The assay was begun by addition of 25 μl of roach muscle membranes at 2 μg/μl (prepared by thawing and addition of an equal volume of buffer B), and incubation was carried out for 60 min at 32° C. Assays were carried out in triplicate.
The compound was allowed to pre-incubate with the membranes for 10 min at 32° C. […] Assays were carried out in triplicate.
Following incubation, assays were quenched with ice-cold buffer B and immediately filtered on pre-wefted Unifilter 96 GF/B filter microplates using a Unifilter 96 Harvester (PerkinElmer™, Boston, Mass.). Each assay well was then washed 10 times with buffer B, and collected on the same filter microplate. The filter microplates were then placed in a vacuum oven at 32° C. for 3 h, following which 50 μl of Microscint 0 (PerkinElmer™, Boston, Mass.) was added to each well. Plates were then heat sealed and counted using a Topcount microplate scintillation counter (PerkinElmer™, Boston, Mass.).

Row | Compound | cytosolic [Ca2+], Sf9 transiently expressing H. virescens ryanodine receptor (FIG. 4) [1] | Calcium Release Threshold (nM) P. americana [2] | Calcium Release Threshold (nM) D. melanogaster [3] | calcium responses in control cells without DNA (FIG. 4) ([4]; caffeine 10 mM) | IC50 [5] | calcium responses, Sf9 stably expressing H. virescens ryanodine receptor (FIG. 5) ([1]; Compound 14 1 μM, Fura-2 AM imaging) | Calcium Release (P. americana) ([2]; known ryanodine receptor agents, native receptors in embryonic neuronal cells, result in words) | caffeine dose response, wild-type Sf9 cells (FIG. 6) ([4]; Sf9-WT, FlexStation, Fura-2) | response of lipid only (-DNA) or non-transfected cells ([4]; caffeine 10 mM) | calcium responses in control cells without DNA (FIG. 3) ([4]; caffeine 10 mM, Compound 16 10 and 100 nM)
1 | Cc1cccc(C(=O)NC(C)C)c1NC(=O)c1cc(C(F)(F)F)nn1-c1ncccc1Cl [Cpd 5, 1-(3-Chloro-2-pyridinyl)-N-[2-methyl-6-[[(1-methylethyl)amino]carbonyl]phenyl]-3-(trifluoromethyl)-1H-pyrazole-5-carboxamide] | increase in cytosolic [Ca^2+] | <300 nM | <300 nM | No significant calcium responses | < 300 nM |  |  |  |  | 
2 | Cn1c(=O)c2c(ncn2C)n(C)c1=O [Caffeine] | increase in cytosolic [Ca^2+] |  |  | No significant calcium responses |  | calcium responses elicited | Agonist | insensitive | do not exhibit significant response | No significant calcium responses
